Data as given in PubChem BioAssay AID1205 (EPA DSSTox, 2008).
Activity calls are given as the source filed them.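 The calls were made as follows: active = tumour findings in long-term animal cancer tests in more than one sex, species or organ; inactive = no tumour finding and more than one negative test.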

Assay: DSSTox (CPDBAS) Carcinogenic Potency Database Summary MultiCellCall Results
Conditions: animal carcinogenicity bioassays, multi-cell call summary
Text: The Carcinogenic Potency Database (CPDB) is a unique and widely used international resource of the results of over 6500 chronic, long-term animal cancer tests on over 1500 chemical substances. The CPDB provides easy access to the bioassay literature, with qualitative and quantitative analyses of both positive and negative experiments that have been published over the past 50 years in the general literature and by the National Cancer Institute/National Toxicology Program. The CPDB standardizes the diverse literature of cancer bioassays that vary widely in protocol, histopathological examination and nomenclature, and in the published author's choices of what information to provide in their papers. Results are reported in the CPDB for tests in rats, mice, hamsters, dogs, and nonhuman primates, and are based on the most positive result among all experiments for each sex-species. The DSSTox CPDBAS (all species) file incorporates data from the CPDB Summary Tables for the full list of over 1500 chemical substances tested in at least one species. A summary MultiCellCall, based on experimental bioassay results of one or more species, is provided in the DSSTox CPDBAS file (see Source URL) for more than 1150 chemical substances.
Associated TD50 values and tumor site details for the relevant species/sex experiment supporting the overall CPDBAS MultiSiteCall are provided in the full DSSTox CPDBAS file (see Comment) and the corresponding CPDBAS Species Bioassay in PubChem. ActivityScore is computed as follows: multispecies=50, multisex=30, multisite=20, with combination scores computed as sums of these values, e.g. multispecies+multisite=70.
For `Clc1cc2c(c(Cl)c1Cl)Oc1c(cc(Cl)c(Cl)c1Cl)O2`, the outcome was “active; multisex active; multispecies active”.
In the case of `CC(C)C/C=N/N(C)C=O`, the outcome is reported as “active; multisite active; multisex active”.
In the case of `CN(N=O)C(N)=O`, the outcome is reported as “active; multisite active; multispecies active”.
For `C=CCN(CCO)N=O`, the outcome was “active; multisite active”.
In the case of `C/C=C(\C)C(=O)O[C@@H]1CCN2CC=C(COC(=O)C(O)(C(C)C)C(C)O)[C@H]12` (stereo partly drawn), the outcome is reported as “active; multisite active”.
In the case of `CCCCCCCC/C=C\CCCCCCCC(=O)O`, the outcome is reported as “inactive; multisex inactive”.
With `CC1(C)C(=O)Nc2ccc(C3=NNC(=O)CC3)cc21` the outcome was “active; multisex active”.
With `CCN(N=O)C(N)=O` the outcome was “active; multisite active; multisex active”.
In the case of `CC(C)Nc1nc(Cl)nc(NC(C)C)n1`, the outcome is reported as “inactive; multisex inactive”.
In the case of `Cc1cc(Cc2cc(C)cc(C(C)(C)C)c2O)c(O)c(C(C)(C)C)c1`, the outcome is reported as “inactive; multisex inactive”.
In the case of `c1ccc(Nc2ccc3ccccc3c2)cc1`, the outcome is reported as “inactive; multisex inactive; multispecies inactive”.
For `CN(C)CCN(Cc1cccs1)c1ccccc1`, the outcome was “inactive; multisex inactive”.
With `Cc1c(COC(=O)C2C(/C=C(\Cl)C(F)(F)F)C2(C)C)cccc1-c1ccccc1` (stereo not drawn) the outcome was “inactive; multisex inactive”.
For `O=C(O)CCCC/C=C(\c1ccccc1)c1cccnc1`, the outcome was “inactive; multisex inactive; multispecies inactive”.
For `CCC1C(=O)OCC1Cc1cncn1C` (stereo not drawn), the outcome was “inactive; multisex inactive”.
In the case of `Cc1ccc(O)c(O)c1`, the outcome is reported as “active; multisex active”.
For `CCOC(=O)C(O)(c1ccc(Cl)cc1)c1ccc(Cl)cc1`, the outcome was “active; multisex active”.
For `Nc1c(Cl)c(Cl)nc(C(=O)O)c1Cl`, the outcome was “inactive; multisex inactive; multispecies inactive”.
With `CC1=C(C(=O)OCCN(Cc2ccccc2)c2ccccc2)C(c2cccc([N+](=O)[O-])c2)C(P2(=O)OCC(C)(C)CO2)=C(C)N1` (stereo not drawn) the outcome was “inactive; multisex inactive; multispecies inactive”.
In the case of `Nc1ccc2c(n1)[nH]c1ccccc12`, the outcome is reported as “active; multisite active; multisex active”.
In the case of `CC(C)(C)c1cc(O)ccc1O`, the outcome is reported as “inactive; multisex inactive”.
For `Nc1ccccc1`, the outcome was “active; multisite active; multisex active”.
With `O=C(C1CCCCC1)N1CC(=O)N2CCc3ccccc3C2C1` (stereo not drawn) the outcome was “inactive; multisex inactive; multispecies inactive”.
In the case of `COc1ccc([C@@H]2CC(=O)c3c(O)cc(O[C@@H]4O[C@H](CO[C@@H]5O[C@@H](C)[C@H](O)[C@@H](O)[C@H]5O)[C@@H](O)[C@H](O)[C@H]4O)cc3O2)cc1OC`, the outcome is reported as “inactive; multisex inactive”.
For `O=C1c2cccc(O)c2C(=O)c2c(O)cccc21`, the outcome was “active; multisite active; multispecies active”.
With `Cc1ccc(N=Nc2c(O)ccc3ccccc23)c([N+](=O)[O-])c1` the outcome was “active; multisite active; multisex active; multispecies active”.
In the case of `CNNCc1ccc(C(=O)NC(C)C)cc1`, the outcome is reported as “active; multisite active; multisex active; multispecies active”.
For `CN(C)CCOc1ccc(/C(=C(/CCCl)c2ccccc2)c2ccccc2)cc1`, the outcome was “inactive; multisex inactive”.
In the case of `CN(C)N=O`, the outcome is reported as “active; multisite active; multisex active; multispecies active”.
With `COCCl` the outcome was “active; multispecies active”.
In the case of `COc1cc2c(cc1N)oc1ccccc12`, the outcome is reported as “active; multisite active; multisex active”.
With `C/C=C/C(=O)Oc1c(C(C)CCCCCC)cc([N+](=O)[O-])cc1[N+](=O)[O-]` (stereo not drawn) the outcome was “inactive; multisex inactive”.
In the case of `COC(=O)[C@H]1[C@H]2C[C@@H]3c4[nH]c5cc(OC)ccc5c4CCN3C[C@H]2C[C@@H](OC(=O)c2cc(OC)c(OC)c(OC)c2)[C@@H]1OC`, the outcome is reported as “active; multisite active; multisex active; multispecies active”.
In the case of `O=C1C(c2[nH]c3ccc(S(=O)(=O)O)cc3c2O)=Nc2ccc(S(=O)(=O)O)cc21`, the outcome is reported as “inactive; multisex inactive; multispecies inactive”.
For `Clc1ccc(-c2ccc(Cl)c(Cl)c2Cl)c(Cl)c1Cl`, the outcome was “active; multisite active; multisex active”.
For `CN(C)c1ccc(N=NS(=O)(=O)O)cc1`, the outcome was “inactive; multisex inactive; multispecies inactive”.
For `Nc1ccc([N+](=O)[O-])cc1N`, the outcome was “inactive; multisex inactive; multispecies inactive”.
With `NNc1ccccc1` the outcome was “active; multisex active”.
With `CCCCN(N)C=O` the outcome was “active; multisite active; multisex active”.
In the case of `O=Cc1ccccc1`, the outcome is reported as “active; multisex active”.
In the case of `CC(=O)Nc1ccc(N=Nc2cc(C)ccc2O)cc1`, the outcome is reported as “active; multisex active; multispecies active”.
For `COc1cc2c(c3oc(=O)c4c(c13)CCC4=O)C1C=COC1O2` (stereo not drawn), the outcome was “active; multisite active; multisex active; multispecies active”.
With `COS(C)(=O)=O` the outcome was “active; multisite active”.
With `CCCCCCCCCC[N+](C)(C)[O-]` the outcome was “inactive; multisex inactive”.
With `CCCCN(CCCC)N=O` the outcome was “active; multisite active; multispecies active”.
In the case of `CC(=O)NNc1ccc(CO)cc1`, the outcome is reported as “active; multisite active; multisex active”.
In the case of `Nc1nc(/C=C/c2ccc([N+](=O)[O-])o2)no1`, the outcome is reported as “active; multisite active; multisex active”.
In the case of `CN(N=O)C(=O)c1ccccc1`, the outcome is reported as “active; multisite active; multisex active”.
For `Brc1cc(Br)c(-c2cc(Br)c(Br)cc2Br)cc1Br`, the outcome was “active; multisex active; multispecies active”.
In the case of `CO[C@@]12[C@H](COC(N)=O)C3=C(C(=O)C(C)=C(N)C3=O)N1C[C@@H]1N[C@@H]12`, the outcome is reported as “active; multisex active”.
For `C1CCOC1`, the outcome was “active; multisite active; multisex active; multispecies active”.
With `CN(C)C(=S)S[Se](SC(=S)N(C)C)(SC(=S)N(C)C)SC(=S)N(C)C` the outcome was “inactive; multisex inactive”.
In the case of `O=[N+]([O-])/C=C/c1ccccc1`, the outcome is reported as “inactive; multisex inactive; multispecies inactive”.
In the case of `ClCCl`, the outcome is reported as “active; multisite active; multisex active; multispecies active”.
With `C[N+](=O)[O-]` the outcome was “active; multisite active; multisex active; multispecies active”.
In the case of `O=S(=O)(O)NC1CCCCC1`, the outcome is reported as “active; multisite active; multisex active”.
In the case of `CCCCCN(CCCCC)N=O`, the outcome is reported as “active; multisex active”.
For `Cc1cccn2c1nc1ccc(N)nc12`, the outcome was “active; multisite active; multisex active; multispecies active”.
With `C=CCN(CC(C)=O)N=O` the outcome was “active; multisite active; multispecies active”.
With `ClC1C2(Cl)C3C4C5OC5C5C4C1(Cl)C(Cl)(C53)C2(Cl)Cl` (stereo not drawn) the outcome was “inactive; multisex inactive; multispecies inactive”.
With `Cc1c(N(C)CS(=O)(=O)O)c(=O)n(-c2ccccc2)n1C` the outcome was “active; multisex active”.
With `CN(C)c1ccc(C(=N)c2ccc(N(C)C)cc2)cc1` the outcome was “active; multisex active; multispecies active”.
With `FC(F)=C(F)F` the outcome was “active; multisite active; multisex active; multispecies active”.
In the case of `O=C(O)C(Cl)Cl`, the outcome is reported as “active; multisex active; multispecies active”.
With `C[N+](C)(C)CCCl` the outcome was “inactive; multisex inactive; multispecies inactive”.
In the case of `COc1ccccc1N1CCN(CCCNc2cc(=O)n(C)c(=O)n2C)CC1`, the outcome is reported as “inactive; multisex inactive”.
In the case of `CN(C)c1ccc(C(=C2C=CC(=[N+](C)C)C=C2)c2ccc(N(C)C)cc2)cc1`, the outcome is reported as “active; multisite active; multisex active”.
In the case of `Clc1ccc(C(c2ccc(Cl)cc2)C(Cl)Cl)cc1`, the outcome is reported as “active; multisite active; multisex active”.
In the case of `Cc1ccc(S(=O)(=O)Oc2ccc(N=Nc3ccc(-c4ccc(N=Nc5c(O)ccc6cc(S(=O)(=O)O)cc(S(=O)(=O)O)c56)c(C)c4)cc3C)cc2)cc1`, the outcome is reported as “active; multisite active; multisex active”.
For `COC(N)=O`, the outcome was “active; multisex active”.
In the case of `O=S(=O)(O)c1c(N=Nc2c(O)ccc3ccccc23)ccc2ccccc12`, the outcome is reported as “inactive; multisex inactive”.
For `CN(C)C(=S)SC(=S)N(C)C`, the outcome was “inactive; multisex inactive”.
In the case of `c1ccoc1`, the outcome is reported as “active; multisite active; multisex active; multispecies active”.
In the case of `Cn1c(=O)c2[nH]cnc2n(C)c1=O`, the outcome is reported as “inactive; multisex inactive; multispecies inactive”.
With `Nc1ncc([N+](=O)[O-])s1` the outcome was “active; multisite active”.
With `Oc1ccc(Cl)cc1Cl` the outcome was “inactive; multisex inactive; multispecies inactive”.
For `C[C@@H]1O[C@@]2(CS1)CN1CCC2CC1`, the outcome was “inactive; multisex inactive”.
For `O=C1OC(c2ccc(O)cc2)(c2ccc(O)cc2)c2ccccc21`, the outcome was “active; multisite active; multisex active; multispecies active”.
With `Cc1cc(Cc2ccc(N)c(C)c2)ccc1N` the outcome was “active; multisite active; multisex active”.
With `CC(O)C(=O)O` (stereo not drawn) the outcome was “inactive; multisex inactive”.
For `C1COCCO1`, the outcome was “active; multisite active; multisex active; multispecies active”.
With `O[C@H]([C@H](O)[C@@H](O)CBr)[C@H](O)CBr` the outcome was “active; multisite active; multisex active; multispecies active”.
In the case of `Nc1c(Br)cc(Br)c2c1C(=O)c1ccccc1C2=O`, the outcome is reported as “active; multisite active; multisex active; multispecies active”.
For `Cc1cc(N)ccc1N`, the outcome was “inactive; multisex inactive; multispecies inactive”.
For `OC[C@H]1O[C@H](O[C@]2(CCl)O[C@H](CCl)[C@@H](O)[C@@H]2O)[C@H](O)[C@@H](O)[C@H]1Cl`, the outcome was “inactive; multisex inactive”.
In the case of `C[C@H](CCc1ccccc1)NC[C@H](O)c1ccc(O)c(C(N)=O)c1`, the outcome is reported as “inactive; multisex inactive”.
For `O=C1CCc2ccccc2O1`, the outcome was “active; multisite active; multisex active; multispecies active”.
With `CN(N=O)c1ccccc1` the outcome was “active; multisex active”.
